Source: US9955689B2, “Method for promoting plant growth” (SUMITOMO CHEMICAL COMPANY, LIMITED, priority 2012, dated 2018)

These compounds were tested on Nicotiana benthamiana (assay: Test Example 4: growth promotion under low-temperature stress by hydroponics of Nicotiana benthamiana (10 ppm)). Settings: compound at 10 ppm, 7 days at 1.5±1.0° C. low-temperature stress, then 3 days at 22° C., 5 or greater = growth promotion effect, read-out: value of a relative leaf area (Equation (1), area of green leaf).
Type: in vivo
Protocol: Test Example 4. Test for Evaluating Growth Promotion Under Low-Temperature Stress by Hydroponics of Nicotiana benthamiana
(§1) (Cultivation and Compound Treatment)
(§2) A DMSO solution, which contained one of the compounds 4, 5, 6, 8, 14, 17, 19, 22, 26, 45, 51, 53, 57, 59, 65, 69, 70, 75, 77, 79, 91, 97, 99, 101, and 110 of the present invention at a concentration of 10,000 ppm, was prepared. The DMSO solution of the compound of the present invention was added at a volume ratio of 1/1,000 to the Murashige⋅Scoog medium of a ½-fold concentration (a medium containing 2.3 g of mixed salts (manufactured by Wako Pure Chemical Industries, Ltd.), 200 mg of Myo-inositol (manufactured by Sigme-Aldrich Co. LLC.), 2 mg of niconitic acid (manufactured by Wako Pure Chemical Industries, Ltd.), 2 mg of pyridoxine hydrochloride (manufactured by Wako Pure Chemical Industries, Ltd.), 20 mg of thiamine hydrochloride (manufactured by Wako Pure Chemical Industries, Ltd.), 20 g of sucrose (manufactured by Wako Pure Chemical Industries, Ltd.), and 1 g of MES (manufactured by DOJINDO LABORATORIES) respectively per 1 L of water and having pH adjusted to 5.8), thereby preparing a medium containing the compound of the present invention at a concentration of 10 ppm.
(§3) Seeds of Nicotiana benthamiana were seeded in the 5 of the medium and cultured overnight at 22° C. Thereafter, 45 μL of the medium containing the compound of the present invention at a concentration of 10 ppm was added thereto, and the seeds are cultured for 7 days at 22° C., under the conditions of an illuminance of 4,000 lux, and a day length of 16 hours, and the seedling raised from the Nicotiana benthamiana were treated with the compound. Moreover, instead of the above medium a test plot, which was obtained by performing the same treatment by using a medium prepared by adding DMSO to the Murashige⋅Scoog medium of ½-fold concentration at a volume ratio of 1/1,000, was used as a control plot not treated with the compound.
(§4) (Low-Temperature Stress Treatment)
(§5) The seedlings of the Nicotiana benthamiana treated with the compound were subjected to low-temperature treatment by being cultured for 7 days at 1.5±1.0° C., under the conditions of an illuminance of 2,000 lux, and a day length of 16 hours.
(§6) The seedlings of the Nicotiana benthamiana having undergone the low-temperature stress treatment were cultured for 3 days at 22° C., an illuminance of 4,000 lux, and a day length of 16 hours. Thereafter, the area of green leaf was quantified by Scanalyzer HTS (manufactured by LemnaTec GmbH). Moreover, the value of the control plot not treated with the compound that had not yet been subjected to the low-temperature stress treatment was measured in the same manner. A value of a relative leaf area was calculated based on the following equation (1), and if the relative value of leafed area was 5 or greater, the compound was evaluated to have a growth promotion effect. As a result of the evaluation, it was confirmed that when the plant was treated with one of the compounds 4, 5, 6, 8, 14, 17, 19, 22, 26, 45, 51, 53, 57, 59, 65, 67, 69, 70, 75, 77, 79, 91, 97, 99, 101, and 110 of the present invention at 10 ppm, the value of a relative leaf area was 5 or greater, compared to the area of green leaf of the control plot not treated with compound. Accordingly, it was confirmed that the treatment using the compound of the present invention improve a growth promotion effect. Relative leaf area=100*(a green area of a plot treated with the compound of the present invention minus(−) a green area of a plot not treated with the compound of the present invention)/(a green area of a control plot not treated with the compound of the present invention that had not yet been subjected to low-temperature stress treatment minus(−) a green area of a control plot not treated with the compound of the present invention) Equation (1): […]
Compound `O=C(O)c1cc2cc(S(F)(F)(F)(F)F)ccc2s1` [Present compound 101, 5-pentafluorosulfanylbenzo[b]thiophene-2-carboxylic acid] has a relative green leaf area at 10 ppm of at least 5%.
`O=C(O)c1cc2cc(NC(=O)C(F)(F)F)ccc2s1` [Present compound 70, 5-(trifluoroacetylamino)benzo[b]thiophene-2-carboxylic acid] showed a relative green leaf area at 10 ppm of at least 5%.
Work on `O=C(O)c1ccc2sc(C(=O)O)cc2c1` [Present compound 53, benzo[b]thiophene-2,5-dicarboxylic acid] yielded a relative green leaf area at 10 ppm of at least 5%.
Work on `O=C(O)c1cc2cc([S+]([O-])C(F)(F)F)ccc2s1` (stereo not drawn) [Present compound 99, 5-(trifluoromethylsulfinyl)benzo[b]thiophene-2-carboxylic acid] yielded a relative green leaf area at 10 ppm of at least 5%.
Work on `O=C(O)c1cc2cc(-c3cccnc3)ccc2s1` [Present compound 45, 5-(3-pyridyl)benzo[b]thiophene-2-carboxylic acid] yielded a relative green leaf area at 10 ppm of at least 5%.
`O=C(O)c1cc2cc(O)ccc2s1` [Present compound 77] showed a relative green leaf area at 10 ppm of at least 5%.
Compound `NC(=O)c1ccc2sc(C(=O)O)cc2c1` [Present compound 59, 5-aminocarbonylbenzo[b]thiophene-2-carboxylic acid] has a relative green leaf area at 10 ppm of at least 5%.
Work on `O=C(O)c1cc2cc(Cl)ccc2s1` [Present compound 6, 5-chlorobenzo[b]thiophene-2-carboxylic acid] yielded a relative green leaf area at 10 ppm of at least 5%.
In the case of `CSc1ccc2sc(C(=O)O)cc2c1` [Present compound 97, 5-methylthiobenzo[b]thiophene-2-carboxylic acid], the relative green leaf area at 10 ppm was at least 5%.
Compound `O=C(O)c1cc2c(I)cccc2s1` [Present compound 14] has a relative green leaf area at 10 ppm of at least 5%.
With `Cc1ccc2cc(C(=O)O)sc2c1` [Present compound 22] the relative green leaf area at 10 ppm was at least 5%.
Compound `O=C(O)c1cc2cccc(O)c2s1` [Present compound 79] has a relative green leaf area at 10 ppm of at least 5%.
For `Cc1ccc(S(=O)(=O)Nc2ccc3sc(C(=O)O)cc3c2)cc1` [Present compound 75, 5-[(4-methylphenylsulfonyl)amino]benzo[b]thiophene-2-carboxylic acid], the relative green leaf area at 10 ppm was at least 5%.
Compound `CN(C)c1c(C(=O)O)sc2ccc(C(F)(F)F)cc12` [Present compound 110, 3-(N,N-dimethylamino)-5-trifluoromethylbenzo[b]thiophene-2-carboxylic acid] has a relative green leaf area at 10 ppm of at least 5%.
`CC(=O)Nc1c(C(=O)O)sc2ccccc12` [Present compound 69, 3-acetylamino-benzo[b]-thiophene-2-carboxylic acid] was tested, and the relative green leaf area at 10 ppm was at least 5%.
In the case of `O=C(O)c1cc2c([N+](=O)[O-])cccc2s1` [Present compound 17, 4-nitrobenzo[b]thiophene-2-carboxylic acid], the relative green leaf area at 10 ppm was at least 5%.
With `O=C(O)c1sc2ccccc2c1C(F)(F)F` [Present compound 26, 3-(trifluoromethyl)benzo[b]thiophene-2-carboxylic acid] the relative green leaf area at 10 ppm was at least 5%.
For `O=C(Nc1ccc2sc(C(=O)O)cc2c1)c1ccccc1` [Present compound 65, 5-(benzoylamino)benzo[b]thiophene-2-carboxylic acid], the relative green leaf area at 10 ppm was at least 5%.
Compound `O=C(O)c1cc2ccc([N+](=O)[O-])cc2s1` [Present compound 19, 6-nitrobenzo[b]thiophene-2-carboxylic acid] has a relative green leaf area at 10 ppm of at least 5%.
`O=C(O)c1cc2ccc(OCc3ccc(C(F)(F)F)cc3)cc2s1` [Present compound 91, 6-(4-trifluoromethylbenzyloxy)benzo[b]thiophene-2-carboxylic acid] showed a relative green leaf area at 10 ppm of at least 5%.
In the case of `O=C(c1ccccc1)c1ccc2sc(C(=O)O)cc2c1` [Present compound 57, 5-benzoylbenzo[b]thiophene-2-carboxylic acid], the relative green leaf area at 10 ppm was at least 5%.

The compounds below were run on Nicotiana benthamiana (assay: Test Example 6: growth promotion under low-temperature stress by hydroponics of Nicotiana benthamiana (0.1 ppm)). Settings: compound at 0.1 ppm, 7 days at 1.5±1.0° C. low-temperature stress, then 3 days at 22° C., 5 or greater = growth promotion effect, read-out: value of a relative leaf area (Equation (1), area of green leaf).
Type: in vivo
Protocol: Test Example 6. Test for Evaluating Growth Promotion Under Low-Temperature Stress by Hydroponics of Nicotiana benthamiana
as §1
as §2, with “2, 3, 7, 11 to 13, 20, 23, 24, 30, 38, 39, 41 to 43, 46, 50, 64, 68, 80, 82, 88, 93, 94, 96, 104, 107,” for “4, 5, 6, 8, 14, 17, 19, 22, 26, 45, 51, 53, 57, 59, 65, 69, 70, 75, 77, 79, 91, 97, 99, 101,”, “112” for “110”, “[…]” for “10,000”, “[…]” for “MES”, “0.1” for “10”
as §3, with “the 5 μL of the” for “the 5 of the”, “concentration of 0.1 ppm was” for “concentration of 10 ppm was”, “at 22° C. under the” for “at 22° C., under the”, “and the seedlings raised from” for “and the seedling raised from”, “to the Murashige′Scoog medium of” for “to the Murashige⋅Scoog medium of”
as §4, §5
as §6, with “22° C., under the conditions of an illuminance” for “22° C., an illuminance”, “value of leaf area was” for “value of leafed area was”, “the compounds 2, 3, 7, 11 to 13, 20, 23, 24, 30, 38, 39, 41 to 43, 46, 50, 64, 68, 80, 82, 88, 93, 94, 96, 104, 107, and 112” for “the compounds 4, 5, 6, 8, 14, 17, 19, 22, 26, 45, 51, 53, 57, 59, 65, 67, 69, 70, 75, 77, 79, 91, 97, 99, 101, and 110”, “107, and 112 of the” for “101, and 110 of the”, “invention at 0.1 ppm, the” for “invention at 10 ppm, the”, “treatment minus(−) green area” for “treatment minus(−) a green area”
Work on `O=C(O)c1cc2cc(F)ccc2s1` [Present compound 2, 5-fluorobenzo[b]thiophene-2-carboxylic acid] yielded a relative green leaf area at 0.1 ppm of at least 5%.
In the case of `O=C(O)c1cc2cc(-c3cccc(Cl)c3)ccc2s1` [Present compound 38, 5-(3-chlorophenyl)benzo[b]thiophene-2-carboxylic acid], the relative green leaf area at 0.1 ppm was at least 5%.
Compound `O=C(O)c1sc2ccccc2c1OCc1ccccc1` [Present compound 88, 3-benzyloxybenzo[b]thiophene-2-carboxylic acid] has a relative green leaf area at 0.1 ppm of at least 5%.
`Cc1cccc2sc(C(=O)O)cc12` [Present compound 20, 4-methylbenzo[b]thiophene-2-carboxylic acid] gave a relative green leaf area at 0.1 ppm of at least 5%.
Work on `O=C(O)c1sc2ccc(C(F)(F)F)cc2c1C(F)(F)F` [Present compound 107, 3,5-bis(trifluoromethyl)benzo[b]thiophene-2-carboxylic acid] yielded a relative green leaf area at 0.1 ppm of at least 5%.
In the case of `CN(C)c1cccc2sc(C(=O)O)cc12` [Present compound 64, 4-(dimethylamino)benzo[b]thiophene-2-carboxylic acid], the relative green leaf area at 0.1 ppm was at least 5%.
